Reference: patent US20220228120A1, “Cardiomyocyte Compositions and Use Thereof” (UNIVERSITY HEALTH NETWORK, priority 2019, published 2022)

Experiments:
Assay type in all cases: cell-based, human
mature compact CMs [1] = assay: In vitro pathological stimuli model: ECAR by Seahorse XF glycolysis assay
Description: For the Seahorse™ XF FAO assay, a few EBs were plated onto an XFe24 cell culture microplate coated by Matrigel™ 48 hours prior to the assay. 24 hours prior to the assay, replace the culture medium with substrate-limited medium containing 0.5 mM glucose (Sigma), 1.0 mM Glutamine (Life technology), 0.5 mM Carnitine (Sigma), and 1% Fetal Bovine Serum (Wisent) in DMEM no glucose medium (ThermoFisher). 45 mins prior to the assay, wash the cells two times with FAO assay medium, add 375 μl/well FAO assay medium to the cells and incubate for 45 mins at 37 C. Load the assay cartridge with Seahorse™ XF Cell Mito Stress Test compounds (2 μM oligomycin, 5 μM FCCP, 0.5 μM rotenone/0.5 μM antimycin A). […] After the measurement of OCR, EBs are dissociated and counted the cell number in each well. […] After the measurement of ECAR, EBs are dissociated and counted the cell number in each well. […]
To induce a pathological response in the mature CMs, we cultured them in the presence of isoproterenol (100 μM), a small molecule adrenergic agonist in a hypoxic (5% O2) environment, in low glucose containing medium with Palmitate (200 μM) for 6 days (FIG. 8B). […] To assess the glycolytic flux in these cells, we measured the extracellular acidification rate (ECAR) as an index of glycolytic activity using the Seahorse™ XF assay (Mookerjee and Brand. J Vis Exp. (2015) e53464).

[2] = test system: hPSC-derived compact cardiomyocytes; assay: Seahorse XF FAO Cell Mito stress test (OCR), compact cardiomyocytes; conditions: ETO 40 μM, mature cells
hPSC-derived atrial CMs = assay: Seahorse FAO Cell Mito stress test (OCR), atrial CMs; conditions: ETO 40 μM
mature compact CMs [3] = assay: In vitro pathological stimuli model (hypoxia+ISO): RT-qPCR
Description: Total RNA from samples was isolated using RNAqueous™-micro Kit including RNase-free DNase treatment (invitrogen). RNA from dissected ventricular and atrial tissue of human fetal hearts was isolated using the TRIzol® method (ThermoFisher) and treated with DNase (Ambion®). Isolated RNA was reverse transcribed into cDNA using oligo (dT) primers and random hexamers and iScript™ Reverse Transcriptase (ThermoFisher). QRT-PCR was performed on an EP Real-Plex MasterCycler® (Eppendorf®) using QuantiFast® SYBR Green PCR kit (QIAGEN). The copy number of each gene relative to the house keeping gene TBP.
(§1) To induce a pathological response in the mature CMs, we cultured them in the presence of isoproterenol (100 μM), a small molecule adrenergic agonist in a hypoxic (5% O2) environment, in low glucose containing medium with Palmitate (200 μM) for 6 days (FIG. 8B). Immature control cells were treated under the same conditions. […] (FIG. 8C). To assess the glycolytic flux in these cells, we measured the extracellular acidification rate (ECAR) as an index of glycolytic activity using the Seahorse™ XF assay (Mookerjee and Brand. J Vis Exp. (2015) e53464).

mature and immature CMs [4] = assay: In vitro pathological stimuli model: CASP9 expression and Annexin V apoptosis assay
Description: After the culture in the pathological condition for 6 days, the EBs were dissociated as described above. To detect the apoptosis following the pathological stimuli, TACS® Annexin V assay (TREVIGEN) was performed by flowcytometry. Cells were washed with PBS and stained with Annexin V-FITC for 15 mins at room temperature. Add Binding Buffer to samples and process by flowcytometry. Stained cells were analyzed using the LSR II Flow cytometer (BD). Data were analyzed using FlowJo™ software (Tree Star).
as §1

mature and immature CMs [5] = assay: In vitro pathological stimuli model: Nile Red lipid accumulation; conditions: treated populations
Description: To quantify the lipid droplets, Cayman's Lipid Droplets Fluorescence Assay Kit (Cayman) was used. After the EBs were dissociated as described above, cells were fixed by Fixative Solution for 10 mins at room temperature. Cells were washed with Assay Buffer and stained with the Nile Red Staining Solution at room temperature for 15 mins. Cells were washed with Assay Buffer and analyzed with filter sets to detect FITC using the LSR II Flow cytometer (BD PharMingen™). Data were analyzed using FlowJo™ software (Tree Star).
as §1

SMILES: O=CC[C@@H](O)[C@H](O)[C@H](O)CO [2-DG, 2-deoxy-glucose]
- ECAR following injection (mature compact CMs [1]; mature CMs exposed to the pathological stimuli, 2-DG 100 mM): rapid decrease

SMILES: CCOC(=O)[C@@]1(CCCCCCOc2ccc(Cl)cc2)CO1 [ETO, etomoxir]
- mitochondrial oxidation [2]: blocked
- mitochondrial oxidation, atrial CMs (hPSC-derived atrial CMs): blocked

SMILES: CC(C)NCC(O)c1ccc(O)c(O)c1 (stereo not shown) [isoproterenol]
- glycolytic activity (ECAR) (mature compact CMs [1]; isoproterenol 100 μM, 5% O2, 6 days, mature CMs): significantly upregulated
- expression of glycolysis-related genes GLUT1, GAPDH and LDHA (mature compact CMs [3]; isoproterenol 100 μM, 5% O2, low glucose with Palmitate 200 μM, 6 days, mature CMs): upregulation
- expression of CD36, GPD1 and PLIN2 (mature compact CMs [3]; mature CMs under the pathological stimuli): upregulated
- expression of hormone sensitive lipase HSL (mature compact CMs [3]; treated mature CMs): downregulated
- apoptosis (CASP9, Annexin V^+ cells) (mature and immature CMs [4]; immature population): not in the immature population
- apoptosis (CASP9, Annexin V^+ cells) (mature and immature CMs [4]; mature population): induced apoptosis
- lipid accumulation (Nile red) (mature and immature CMs [5]): increases
